Measured values from patent US20250257048A1, “METHODS OF PREPARING AN ISOINDOLINONE DERIVATIVE AND CRYSTAL FORMS THEREOF” (Monte Rosa Therapeutics, Inc., priority 2022, published 2025).
Values joined by “and” are separate entries in the source; they are usually repeats but may differ in a detail not shown here. Equal entries are not always repeated. Where two headings read alike, the source gives them in different places.

Tests used:
[1] = target: Full length wild-type cereblon CRBN (Homo sapiens (Human), UniProt Q96SW2); test: fluorescence polarization (FP) homogeneous assay, cereblon binding; details: CRBN 80.0 nM, probe 5 nM, FP read after 12 hours, read-out: rFP IC50
Chain of Full length wild-type cereblon CRBN (Q96SW2 whole entry): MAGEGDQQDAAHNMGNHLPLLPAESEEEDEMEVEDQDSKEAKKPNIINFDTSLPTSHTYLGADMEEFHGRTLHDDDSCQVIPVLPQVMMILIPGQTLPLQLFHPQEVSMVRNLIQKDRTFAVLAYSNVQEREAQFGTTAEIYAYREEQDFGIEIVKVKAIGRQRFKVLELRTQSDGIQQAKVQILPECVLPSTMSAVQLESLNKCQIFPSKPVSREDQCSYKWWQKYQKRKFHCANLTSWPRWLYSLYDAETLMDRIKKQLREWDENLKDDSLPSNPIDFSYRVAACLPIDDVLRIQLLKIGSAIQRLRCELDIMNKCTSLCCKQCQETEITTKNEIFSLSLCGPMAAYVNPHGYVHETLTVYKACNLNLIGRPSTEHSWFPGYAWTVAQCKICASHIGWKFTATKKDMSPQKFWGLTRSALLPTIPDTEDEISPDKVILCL
Procedure: Compound activity was monitored in a fluorescence polarization (FP) homogeneous assay using 1-[5-({2-[2-(2-{[2-(2,6-dioxopiperidin-3-yl)-1,3-dioxo-2,3-dihydro-1H-isoindol-4-yl]oxy}acetamido) ethoxy]ethyl}carbamoyl) pentyl]-3,3-dimethyl-2-[(1E,3E)-5-[(2E)-1,3,3-trimethyl-5-sulfo-2,3-dihydro-1H-indol-2-ylidene]penta-1,3-dien-1-yl]-3H-indol-1-ium-5-sulfonate as a fluorescent probe. Unless otherwise stated, all reagents were purchased from Sigma Aldrich. Enzymatic reactions were conducted in Perkin-Elmer Black 384 well ProxiPlate Plus (catalogue no. 6008269) in 10 μL total volume. Full length wild-type cereblon CRBN (80.0 nM, 10 μL) was incubated in assay buffer containing 20 mM HEPES (pH 8.0), […], 0.5 mM TCEP and 0.05% Tween 20 in the presence or absence of compound (300 nL). Inhibitors were stored as 10 mM DMSO stocks in an inert environment (low humidity, dark, low oxygen, room temperature) using the Storage Pod System. Compounds and DMSO were dispensed using the Echo E5XX (Labcyte Inc. USA) to give concentrations from 300 to 0.937 or 3000 to 9.3 nM in a 12 data point curve. […] FP was measured after a period of 12 hours using a Pherastar plate reader (BMG Labtech, Germany) exciting at 590 nm and measuring the amount of parallel and perpendicular light at 675 nm. […]

GSPT1 = GSPT1 (Homo sapiens (Human), UniProt P15170+Q96SW2); test: immunofluorescence assay for GSPT1 degradation in CAL-51 cells; type: cell-based; details: 6 hours treatment
Chain of GSPT1 (P15170 whole entry): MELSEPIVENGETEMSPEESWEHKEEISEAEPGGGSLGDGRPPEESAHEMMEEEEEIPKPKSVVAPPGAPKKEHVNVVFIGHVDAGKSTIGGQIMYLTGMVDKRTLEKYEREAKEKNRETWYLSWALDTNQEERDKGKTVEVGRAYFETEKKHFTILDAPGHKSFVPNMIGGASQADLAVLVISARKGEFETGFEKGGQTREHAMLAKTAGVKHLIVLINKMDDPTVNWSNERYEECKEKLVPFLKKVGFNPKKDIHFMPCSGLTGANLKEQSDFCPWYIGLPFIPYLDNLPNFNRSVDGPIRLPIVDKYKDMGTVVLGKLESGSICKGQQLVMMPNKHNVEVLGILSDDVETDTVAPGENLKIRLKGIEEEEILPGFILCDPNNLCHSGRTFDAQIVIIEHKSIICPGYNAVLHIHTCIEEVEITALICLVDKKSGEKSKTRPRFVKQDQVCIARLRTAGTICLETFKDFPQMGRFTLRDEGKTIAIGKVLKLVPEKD
Chain of GSPT1 (Q96SW2 whole entry): as the sequence (Q96SW2 whole entry) above
Chain of GSPT1 (Q16531 whole entry partner): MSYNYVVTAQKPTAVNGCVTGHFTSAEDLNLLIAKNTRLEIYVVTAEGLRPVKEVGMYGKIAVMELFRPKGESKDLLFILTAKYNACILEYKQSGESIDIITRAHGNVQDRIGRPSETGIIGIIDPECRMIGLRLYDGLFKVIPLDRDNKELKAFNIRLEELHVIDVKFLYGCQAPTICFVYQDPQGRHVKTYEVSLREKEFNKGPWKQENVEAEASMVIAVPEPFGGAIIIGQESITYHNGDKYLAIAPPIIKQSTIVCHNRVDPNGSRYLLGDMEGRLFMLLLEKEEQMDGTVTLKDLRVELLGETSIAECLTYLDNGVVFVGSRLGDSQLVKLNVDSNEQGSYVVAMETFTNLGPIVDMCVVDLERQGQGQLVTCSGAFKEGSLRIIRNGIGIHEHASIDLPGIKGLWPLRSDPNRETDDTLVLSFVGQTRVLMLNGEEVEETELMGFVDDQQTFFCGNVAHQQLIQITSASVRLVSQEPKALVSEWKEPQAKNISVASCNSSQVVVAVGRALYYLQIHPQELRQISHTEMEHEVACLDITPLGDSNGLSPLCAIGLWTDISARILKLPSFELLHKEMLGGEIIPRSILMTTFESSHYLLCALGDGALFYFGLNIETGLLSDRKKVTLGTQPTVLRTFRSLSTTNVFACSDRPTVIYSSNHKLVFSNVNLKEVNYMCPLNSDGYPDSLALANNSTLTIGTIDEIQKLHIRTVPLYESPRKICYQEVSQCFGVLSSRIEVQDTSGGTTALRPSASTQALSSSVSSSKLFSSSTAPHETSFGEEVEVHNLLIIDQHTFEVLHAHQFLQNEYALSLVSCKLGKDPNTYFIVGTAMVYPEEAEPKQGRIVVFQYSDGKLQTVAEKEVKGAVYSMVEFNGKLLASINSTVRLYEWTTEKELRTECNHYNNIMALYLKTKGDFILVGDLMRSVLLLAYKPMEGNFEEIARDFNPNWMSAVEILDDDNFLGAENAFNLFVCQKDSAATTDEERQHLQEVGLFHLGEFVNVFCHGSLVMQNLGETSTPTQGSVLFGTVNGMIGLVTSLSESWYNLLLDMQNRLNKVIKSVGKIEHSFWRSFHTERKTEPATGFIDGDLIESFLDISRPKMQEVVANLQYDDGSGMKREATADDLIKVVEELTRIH
Procedure: The representative compounds were tested in an immunofluorescence assay for their activity to bind to degrade GSPT1. CAL-51 cells were purchased from DSMZ (cat. Number ACC302), sub-cultured in 90% Dulbecco's MEM (4.5 g/L glucose, Gibco 11965)+10% heat inactivated FBS (BioConcept, 2-01F136I) and incubated at 37° C., 5% CO2. For the assay, imaging microtiterplate Cell Carrier 96 Ultra (Perkin Elmer 6055302) were pre-coated with Fibronectin (Sigma F085, 30 μl at 0.2 μg/ml) in PBS (100 μl, Gibco 14190) for 45 min at room temperature, rinsed with PBS and CAL-51 cells (30K cells/well) were plated and let to adhere overnight. Cells were treated with compounds typically using a serial dilution ranging from 30 μM to 0.1 nM for 6 hours. […]
Primary antibody (human GSPT1, Sigma HPA052488) was diluted in blocking buffer (dil.1/300, 35 μl/well) and incubated with the cells overnight at 4° C. […] Fluorescence intensity of Alexa-Fluor 488 (GSPT1), Alexa-Fluor 647 (Actin) and DAPI (Nucleus) were measured. […] The outline of the cells was determined analogously from the sum of the normalized, smoothed DAPI and Actin channel, starting from each nucleus.
The Alexa-Fluor 488 (GSPT1) signal intensity in each cell was finally measured, in order to obtain a Mean intensity per cell. GSPT1 degradation (DC50) was calculated after normalization to controls and data import in CDD vault Database, using non-linear regression. […]

[2] = solid stability at 40° C./75% RH and 25° C./60% RH for 7 days (HPLC purity, XRPD); type: physicochemical; details: for physical and chemical stability: 25° C. 60% RH and 40° C. 75% RH for 7 days
Procedure: Solid stability was evaluated at 40° C./75RH and 25° C./60% RH for 7 days.

[3] = solubility of crystalline Form I in media (water) at 37° C.; type: physicochemical
Procedure: Solubility of crystalline Form I was evaluated by weighing about 10 mg of crystalline Form I into 2 mL of media, and then stirring the suspension at 37° C. for 24 hours. At 1, 4 and 24 hours, the suspensions were filtered, and the filtrates were analyzed by HPLC and pH.

[4] = hygroscopicity of crystalline form; type: physicochemical

Q: With O=C1CCC(N2Cc3ccc(COC(=O)Nc4cc(OC(F)(F)F)ccc4F)cc3C2=O)C(=O)N1 (centres unmarked) [Compound 145, (2-(2,6-dioxopiperidin-3-yl)-3-oxoisoindolin-5-yl)methyl (2-fluoro-5-(trifluoromethoxy)phenyl)carbamate] as the molecule, how does the IC50 [1] read?
A: 0.5 to 1.1 µM

Q: What about the DC50 (GSPT1) of the same molecule?
A: 0.03 to 0.3 µM

Q: With O=C1CCC(N2Cc3ccc(COC(=O)Nc4cc(OC(F)(F)F)ccc4F)cc3C2=O)C(=O)N1 (centres unmarked) [Form I, (2-(2,6-dioxopiperidin-3-yl)-3-oxoisoindolin-5-yl)methyl (2-fluoro-5-(trifluoromethoxy)phenyl)carbamate] as the molecule, how does the “physical and chemical stability” value [2] read?
A: good physical and chemical stability

Q: What about the “physical and chemical stability” value ([2]; listed as Crystalline Form I) of the same molecule?
A: physically and chemically stable

Q: And the “physical and chemical stability” value ([2]; listed as crystalline Form I)?
A: no obvious degradation nor form change

Q: What about the Purity ([2]; 25° C./60% RH, 1 day) of the same molecule?
A: 100%

Q: And the XRPD ([2]; 25° C./60% RH, 1 day)?
A: Form I

Q: What about the Purity ([2]; 25° C./60% RH, 7 day) of the same molecule?
A: 100%

Q: And the XRPD ([2]; 25° C./60% RH, 7 day)?
A: Form I

Q: And the Purity ([2]; 40° C./75% RH, 1 day)?
A: 100%

Q: What about the XRPD ([2]; 40° C./75% RH, 1 day) of the same molecule?
A: Form I

Q: What about the Purity ([2]; 40° C./75% RH, 7 day) of the same molecule?
A: 99.95%

Q: And the XRPD ([2]; 40° C./75% RH, 7 day)?
A: Form I

Q: What about the Purity-T0 ([2]; T0 (day 0), HPLC) of the same molecule?
A: 100%

Q: And the “crystal form of remained solid in all media” value ([3]; 37° C., after 1, 4 and 24 hours, XRPD (FIG. 5))?
A: unchanged

Q: What about the solubility ([3]; aqueous solution, 37 °C, aqueous buffer, thermodynamic from solid, about pH 6 to 7, read-out: solubility in an aqueous solution) of the same molecule?
A: < 1 µg/mL

Q: What about the “pH(24 h)” value ([3]; pH of filtrate, H2O, 37° C., 24 h) of the same molecule?
A: 6.35 and 6.61 and 6.41

Q: And the “XRPD(24 h)” value ([3]; remained solid, H2O, 37° C., 24 h)?
A: Form I

Q: What about the solubility at 1 h ([3]; water, 37 °C, thermodynamic from solid, H2O, 1 h, triplicate H2O-1 to H2O-3) of the same molecule?
A: < 1 µg/mL

Q: And the solubility at 4 h ([3]; water, 37 °C, thermodynamic from solid, H2O, 4 h, triplicate H2O-1 to H2O-3)?
A: < 1 µg/mL

Q: And the solubility at 24 h ([3]; water, 37 °C, thermodynamic from solid, H2O, 24 h, triplicate H2O-1 to H2O-3)?
A: < 1 µg/mL

Q: What about the solubility ([3]; water, 37 °C, water, thermodynamic from solid, read-out: solubility in water) of the same molecule?
A: < 1 µg/mL

Q: What about the hygroscopicity [4] of the same molecule?
A: nonhydroscopic
